Read-outs that look alike come from different tables or passages of the source.
How the values were obtained:
[1] = system: rat cardiomyocytes; settings: cited from earlier work
[2] = system: isolated guinea pig hearts; settings: cited from earlier work
[3] = system: rat and guinea pig brain slices; settings: cited from earlier work
[4] = system: mice; settings: cited from earlier work
[5] = system: mice; settings: interpreted as skeletal muscle relaxation; cited from earlier work
[6] = system: anesthetized rats; settings: cited from earlier work
[7] = system: isolated rat hearts; settings: perfused with 5-iodotubercidin alone, cited from earlier work
[8] = system: dog hearts; settings: cited from earlier work
[9] = system: ischemic cerebral injury; settings: Phillis et al.; cited from earlier work
[10] = target: T1, partially purified pig heart adenosine kinase (Sus scrofa, UniProt A0A5G2R0F5); experiment: Adenosine kinase (AK) inhibition; assay type: biochemical
T1 construct: partially purified pig heart adenosine kinase; from tissue; host or cells: pig heart
Protocol: Adenosine kinase activity was measured essentially as described by Yamada et al. Biochim. Biophys. Acta 660, 36-43 […] with a few minor modifications. Assay mixtures contained 50 mM TRIS-maleate buffer, pH 7.0, 0.1% BSA, 1 mM ATP 1 mM MgCl2, 0.5 μM [U-^14 C]adenosine (400-600 mCi/mmol) and varying duplicate concentrations of inhibitor. The reactions were initiated by addition of approximately 0.1 μU partially purified pig heart adenosine kinase, where one unit is defined as that amount of enzyme required to phosphorylate 1 μmol adenosine per minute. The reactions were incubated for 20 minutes at 37° C. The assay was quenched upon spotting 30 μL aliquots onto 2 cm^2 pieces of Whatman DE81 anion exchange paper. The paper squares were washed for 3 minutes in 6 L distilled/deionized water to remove the unreacted adenosine. […] The amount of ^14 C-AMP was quantified by scintillation counting.

[11] = system: carrageenan-induced paw swelling in rats; experiment: Anti-inflammatory activity, carrageenan paw swelling; assay type: in vivo, rat; settings: po, 10 mg/kg, paw swelling 3 hours after carrageenan, vs vehicle
Protocol: Carrageenan (Type λ) was suspended in sterile PBS at 1% (w/v), autoclaved for 30 minutes, and stored at room temperature. Rats were pretreated with vehicle or AK inhibitor (10 mg/kg) by oral gavage or i.p. administration and the volume of the left hind paw was measured using a water displacement plethysmometer (Stoelting Co., Wood Dale, Ill.). One hour after oral treatment or 30 minutes after i.p. treatment, the rats were briefly anesthetized, and 0.1 ml of the carrageenan solution was injected subcutaneously into the planar surface of the left hind paw. The ensuing paw swelling was measured by plethysmometry after 3 hours. The paw volume in millileters was subtracted from the pre-injection paw volume. Data are presented as the percent inhibition of paw swelling in AK inhibitor treated animals, compared to vehicle treated control animals.

[12] = system: male SA rats; experiment: Anticonvulsant activity, maximal electroshock (MES) model, suppression of hind limb tonic extension; assay type: in vivo; settings: Rattus norvegicus, 1 h, one hour before seizure testing
[13] = system: male SA rats; experiment: Analgesic activity, hot plate model; assay type: in vivo; settings: Rattus norvegicus, po
Source text: (§1) Ther., 250:3, 915-922 (1989). See also, Life Sciences 51:171-76 (1992). These models measure pain avoidance and tolerance in response to a regulated stimulus, and compare the response of animals before and after they are given test compound.

[14] = system: male SA rats; experiment: Analgesic activity, tail flick model; assay type: in vivo; settings: Rattus norvegicus, po
Source text: as §1

[15] = Oral bioavailability in dogs (oral vs intravenous AUC); assay type: in vivo, dog (female beagles); settings: dog, plasma, 10 mg/kg, read-out: % Oral Availability
Protocol: Oral bioavailability was determined by comparing the dose corrected areas under the plasma-concentration time curve (AUC) to infinity for the each tested compound, given orally and intravenously in dogs. […] One dog received this solution at an infusion rate of 0.1 mL/min for 20 minutes. The other dog received a 0.2 mL/in infusion for 10 minutes. […] The plasma was separated within 10 minutes of blood collection and was stored frozen. The plasma concentration of compound was then determined for these IV infusions. […] The plasma concentration of compound was determined for this oral administration. The samples were assayed for intact adenosine kinase inhibitor by high performance liquid chromatography (HPLC). An internal standard was added to each test sample and standard sample. Each was then extracted with 10 volumes of 1% v/v dimethylsulfoxide in acetonitrile. […] The dried residue was reconstituted in mobile phase and the contents were analyzed for the adenosine kinase inhibitor (AKI) on HPLC. […] Pharmacokinetic parameters were calculated from the plasma concentration vs. time data, using standard non-compartmental methods. […] et al., Pharmacokinetics., 2[…]. (1983).

[16] = po, fasted, read-out: Anticonvulsant ED50 (MES), po

T1 sequence (A0A5G2R0F5 1-362): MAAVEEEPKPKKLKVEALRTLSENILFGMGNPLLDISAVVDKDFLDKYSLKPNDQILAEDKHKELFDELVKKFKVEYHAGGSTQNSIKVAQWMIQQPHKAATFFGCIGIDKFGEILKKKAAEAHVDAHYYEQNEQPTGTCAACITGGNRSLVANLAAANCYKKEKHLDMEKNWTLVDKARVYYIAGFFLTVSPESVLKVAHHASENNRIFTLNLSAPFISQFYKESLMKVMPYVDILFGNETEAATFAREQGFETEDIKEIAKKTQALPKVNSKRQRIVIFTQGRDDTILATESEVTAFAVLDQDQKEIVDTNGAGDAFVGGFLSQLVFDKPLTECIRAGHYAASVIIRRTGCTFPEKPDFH

OC[C@H]1O[C@@H](n2cnc3c2NC=NC[C@H]3O)C[C@@H]1O [2'-deoxycoformycin]
effect on adenosine release ([1]; inhibition of adenosine deaminase alone): no effect on adenosine release from the cells

NC[C@H]1O[C@@H](n2cnc3c(N)ncnc32)[C@H](O)[C@@H]1O [5'-amino-5'-deoxyadenosine]
increase in adenosine release ([1]; inhibition of ADA together with adenosine kinase): 6 fold
adenosine release effects without ADA inhibition ([2]; absence of ADA inhibition): not apparent in the absence of ADA inhibition
increase of adenosine release ([2]; perfusion medium, in the presence of EHNA): 15 fold

C[C@H]1O[C@@H](n2cc(I)c3c(N)ncnc32)[C@H](O)[C@@H]1O [5'-deoxy-5-iodotubercidin]
adenosine uptake [3]: adenosine uptake was reportedly inhibited
hypothermia [4]: hypothermia in mice
flaccidity and spontaneous locomotor activity [5]: pronounced general flaccidity and much-reduced spontaneous locomotor activity in mice
blood pressure and heart rate [6]: decrease blood pressure and heart rate in anesthetized rats

Nc1ncnc2c1c(I)cn2[C@@H]1O[C@H](CO)[C@@H](O)[C@H]1O [5-iodotubercidin]
adenosine uptake [3]: adenosine uptake was reportedly inhibited
perfusate adenosine concentration ([7]; hypoxic, anoxic or ischemic conditions): no increase in perfusate adenosine concentration
perfusate adenosine concentration ([7]; normoxic conditions): no increase in perfusate adenosine concentration
effects in ischemia and reperfusion model [8]: inconsistent effects
hypothermia [4]: hypothermia in mice
flaccidity and spontaneous locomotor activity [5]: pronounced general flaccidity and much-reduced spontaneous locomotor activity in mice
protection against ischemic cerebral injury [9]: does not protect against ischemic cerebral injury
blood pressure and heart rate [6]: decrease blood pressure and heart rate in anesthetized rats

C[C@H]1O[C@@H](n2cc(-c3ccccc3)c3c(Nc4ccc(F)cc4)ncnc32)[C@H](O)[C@@H]1O [#1, 4-N-(4-fluorophenyl)amino-5-phenyl-7-(5-deoxy-1-β-D-ribofuranosyl)pyrrolo(2,3-d)pyrimidine]
IC50 [10]: 11 nM
Carrageenan Paw (% inh) [11]: 0.2%
ED50 ([12]; ip, >5 or <5 = fewer or more than 50% inhibited in initial screen at 5 mg/kg ip, read-out: Anticonvulsant ED50 (MES), ip): 1.9 mg/kg
ED50 [12, 16]: 5.1 mg/kg
ED50 [13]: 16.9 mg/kg
ED50 [14]: < 10 mg/kg

C[C@H]1O[C@@H](n2cc(-c3ccccc3)c3c(Nc4ccc(C#N)cc4)ncnc32)[C@H](O)[C@@H]1O [#21, 4-N-(4-cyanophenyl)amino-5-phenyl-7-(5-deoxy-1-β-D-ribofuranosyl)pyrrolo[2,3-d]pyrimidine]
IC50 [10]: 14 nM
bioavailability [15]: 23%
ED50 [12, 16]: > 20 mg/kg

COc1ccc(-c2cn([C@@H]3O[C@H](C)[C@@H](O)[C@H]3O)c3ncnc(Nc4ccc(C#N)cc4)c23)cc1 [#27, 4-N-(4-cyanophenyl)amino-5-(4-methoxyphenyl)-7-(5-deoxy-1-β-D-ribofuranosyl)pyrrolo[2,3-d]pyrimidine]
bioavailability [15]: 100%

— patent publication US5721356A, “Orally active adenosine kinase inhibitors” (Gensia, Inc., priority 1995, dated 1998)
